In ChEMBL document CHEMBL5579805, “Synthesis, antibacterial activity, and 3D-QASR studies of matrine-indole derivatives as potential antibiotics” (2024):
Converted amounts (≈) assume the structure as drawn.

Experiments:
Assay type in all cases: functional
Staphylococcus aureus = assay: Antibacterial activity against Staphylococcus aureus by two-fold dilution method; conditions: for MIC: Staphylococcus aureus
Pseudomonas aeruginosa = assay: Antibacterial activity against Pseudomonas aeruginosa by two-fold dilution method
Cutibacterium acnes = assay: Antibacterial activity against Propionibacterium acnes by two-fold dilution method
Escherichia coli = assay: Antibacterial activity against Escherichia coli by two-fold dilution method
Candida albicans = assay: […] activity against Candida albicans by two-fold dilution method; conditions: for MIC: Candida albicans

Structure (SMILES) | -logMIC (Staphylococcus aureus) | MIC (Staphylococcus aureus) | MIC (Pseudomonas aeruginosa) | MIC (Cutibacterium acnes) | MIC (Escherichia coli) | -logMIC (Candida albicans) | MIC (Candida albicans)
COC(=O)CCC[C@@H]1[C@H]2CCCN3CCC[C@@H](CN1C(=O)c1cc4ccc(Cl)cc4n1Cc1cc(C(C)(C)C)cc(C(C)(C)C)c1)[C@@H]23 | 1.032 | 0.093 µg/mL (≈ 0.141 µM) | 0.466 µg/mL (≈ 0.706 µM) | 0.29 µg/mL (≈ 0.439 µM) | 1.49 µg/mL (≈ 2.25 µM) | -0.955 | 9.02 µg/mL (≈ 13.7 µM)
O=C1CCC[C@@H]2[C@H]3CCCN4CCC[C@@H](CN12)[C@@H]34 [MATRINE] | – | 7.43 µg/mL (≈ 29.9 µM) | 6.73 µg/mL (≈ 27.1 µM) | 16 µg/mL (≈ 64.3 µM) | 5.46 µg/mL (≈ 22 µM) | – | 8 µg/mL (≈ 32.2 µM)
